In patent US20210085640A1, “ACYLATED CATECHIN POLYPHENOLS AND METHODS OF THEIR USE FOR THE TREATMENT OF CANCER” (Flagship Pioneering Innovations V, Inc., priority 2018, published 2021):

Legend:
Assay type in all cases: cell-based
T24 bladder cancer cells = assay: Cancer cell survival (CellTiter-Glo), T24; conditions: Homo sapiens
How it was run: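 Viability by CellTiter-Glo after 72 h compound treatment of T24 bladder cancer cells (4×10^3/well, plated the night before), nine concentration levels in triplicate. Percent survival normalised to untreated cells minus medium background, from which IC50 was determined.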

[1] = tested on: Daudi lymphoma cancer cells; assay: Cancer cell survival (CellTiter-Glo), Daudi; conditions: Homo sapiens, 72 h
How it was run: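 Daudi cells (4×10^3/well) were exposed for 72 h at 37 °C to nine concentrations of compound, added as 10× solutions spanning 1 μM–10 mM (fatty acids) or 100 nM–1 mM (others). CellTiter-Glo luminescence gave % survival versus untreated, medium-blank corrected; IC50 derived.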

MCF7 breast cancer cells = assay: Cancer cell survival (CellTiter-Glo), MCF7; conditions: Homo sapiens, 72 h
How it was run: (§1)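 Following overnight plating of 4×10^3 cells per well, triplicate wells received compound at nine concentrations (10× dosing stocks: fatty acids 1 μM-10 mM, all others 100 nM-1 mM). Incubation lasted 72 h at 37 C under 5% CO2. CellTiter-Glo luminescence then gave percent survival and IC50.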

[2] = tested on: HCT 116 colorectal cancer cells; assay: Cancer cell survival (CellTiter-Glo), HCT 116; conditions: Homo sapiens, HCT 116 cells, 72 h
How it was run: as §1

A549 lung cancer cells = assay: Cancer cell survival (CellTiter-Glo), A549; conditions: Homo sapiens, 72 h
How it was run: as §1

[3] = tested on: PC-3 prostate cancer cells; assay: Cancer cell survival (CellTiter-Glo), PC-3; conditions: Homo sapiens, PC-3 cells, 72 h
How it was run: as §1

A-431 skin cancer cells = assay: Cancer cell survival (CellTiter-Glo), A-431; conditions: Homo sapiens, A-431 cells, 72 h
How it was run: as §1

AGS stomach cancer cells = assay: Cancer cell survival (CellTiter-Glo), AGS; conditions: 72 h
How it was run: as §1

[4] = 317 μM, read-out: Cell survival at given concentration
[5] = 1 mM, read-out: Cell survival at given concentration
[6] = 3 mM, read-out: Cell survival at given concentration
[7] = 10 mM, read-out: Cell survival at given concentration

Work on `CCC(=O)O` [propionate] yielded a viability at 1 µM (T24 bladder cancer cells; T-24, 1 μM, 72 h, Table 3.2, read-out: Cell survival at given concentration) of 99%, a viability at 3 µM (T24 bladder cancer cells; T-24, 3 μM, 72 h, Table 3.2, read-out: Cell survival at given concentration) of 97% and a viability at 10 µM (T24 bladder cancer cells; T-24, 10 μM, 72 h, Table 3.2, read-out: Cell survival at given concentration) of 97%. The viability at 32 µM (T24 bladder cancer cells; T-24, 32 μM, 72 h, Table 3.2, read-out: Cell survival at given concentration) was 99%, the viability at 100 µM (T24 bladder cancer cells; T-24, 100 μM, 72 h, Table 3.2, read-out: Cell survival at given concentration) was 97% and the viability at 317 µM (T24 bladder cancer cells; T-24, 317 μM, 72 h, read-out: Cell survival at given concentration) was 98%. The viability at 1000 µM (T24 bladder cancer cells; T-24, 1 mM, 72 h, read-out: Cell survival at given concentration) was 89%, the viability at 3000 µM (T24 bladder cancer cells; T-24, 3 mM, 72 h, read-out: Cell survival at given concentration) was 83% and the viability at 10000 µM (T24 bladder cancer cells; T-24, 10 mM, 72 h, read-out: Cell survival at given concentration) was 60%. For the same compound, the IC50 (T24 bladder cancer cells; T-24, 72 h, Table 3.2, read-out: IC50) was greater than 10 mM, the viability at 1 µM ([1]; 1 μM, Table 4.2, read-out: Cell survival at given concentration) was 97% and the viability at 3 µM ([1]; 3 μM, Table 4.2, read-out: Cell survival at given concentration) was 97%. The viability at 10 µM ([1]; 10 μM, Table 4.2, read-out: Cell survival at given concentration) was 99%, the viability at 32 µM ([1]; 32 μM, Table 4.2, read-out: Cell survival at given concentration) was 99% and the viability at 100 µM ([1]; 100 μM, Table 4.2, read-out: Cell survival at given concentration) was 101%. The viability at 317 µM [1, 4] was 97%, the viability at 1000 µM [1, 5] was 75% and the viability at 3000 µM [1, 6] was 47%. It also gave a viability at 10000 µM [1, 7] of 18%, an IC50 ([1]; Table 4.2) of 2.73 mM and a viability at 1 µM (MCF7 breast cancer cells; 1 μM, Table 5.2, read-out: Cell survival at given concentration) of 99%. The viability at 3 µM (MCF7 breast cancer cells; 3 μM, Table 5.2, read-out: Cell survival at given concentration) was 97%, the viability at 10 µM (MCF7 breast cancer cells; 10 μM, Table 5.2, read-out: Cell survival at given concentration) was 103% and the viability at 32 µM (MCF7 breast cancer cells; 32 μM, Table 5.2, read-out: Cell survival at given concentration) was 102%. It also gave a viability at 100 µM (MCF7 breast cancer cells; 100 μM, Table 5.2, read-out: Cell survival at given concentration) of 102%, a viability at 317 µM (MCF7 breast cancer cells; [4]) of 94% and a viability at 1000 µM (MCF7 breast cancer cells; [5]) of 91%. The viability at 3000 µM (MCF7 breast cancer cells; [6]) was 77%, the viability at 10000 µM (MCF7 breast cancer cells; [7]) was 51% and the IC50 (MCF7 breast cancer cells; Table 5.2) was greater than 10 mM. It also gave a viability at 1 µM ([2]; 1 μM, Table 6.2, read-out: Cell survival at given concentration) of 98%, a viability at 3 µM ([2]; 3 μM, Table 6.2, read-out: Cell survival at given concentration) of 102% and a viability at 10 µM ([2]; 10 μM, Table 6.2, read-out: Cell survival at given concentration) of 103%. The viability at 32 µM ([2]; 32 μM, Table 6.2, read-out: Cell survival at given concentration) was 103%, the viability at 100 µM ([2]; 100 μM, Table 6.2, read-out: Cell survival at given concentration) was 106% and the viability at 317 µM [2, 4] was 103%. It also gave a viability at 1000 µM [2, 5] of 98%, a viability at 3000 µM [2, 6] of 66% and a viability at 10000 µM [2, 7] of 19%. The IC50 ([2]; Table 6.2) was 4.38 mM, the viability at 1 µM (A549 lung cancer cells; 1 μM, Table 7.2, read-out: Cell survival at given concentration) was 98% and the viability at 3 µM (A549 lung cancer cells; 3 μM, Table 7.2, read-out: Cell survival at given concentration) was 98%. The viability at 10 µM (A549 lung cancer cells; 10 μM, Table 7.2, read-out: Cell survival at given concentration) was 102%, the viability at 32 µM (A549 lung cancer cells; 32 μM, Table 7.2, read-out: Cell survival at given concentration) was 103% and the viability at 100 µM (A549 lung cancer cells; 100 μM, Table 7.2, read-out: Cell survival at given concentration) was 101%. The viability at 317 µM (A549 lung cancer cells; [4]) was 104%, the viability at 1000 µM (A549 lung cancer cells; [5]) was 104% and the viability at 3000 µM (A549 lung cancer cells; [6]) was 94%. For the same compound, the viability at 10000 µM (A549 lung cancer cells; [7]) was 65%, the viability at 1 µM ([3]; 1 μM, Table 8.2, read-out: Cell survival at given concentration) was 100% and the viability at 3 µM ([3]; 3 μM, Table 8.2, read-out: Cell survival at given concentration) was 98%. It also gave a viability at 10 µM ([3]; 10 μM, Table 8.2, read-out: Cell survival at given concentration) of 98%, a viability at 32 µM ([3]; 32 μM, Table 8.2, read-out: Cell survival at given concentration) of 101% and a viability at 100 µM ([3]; 100 μM, Table 8.2, read-out: Cell survival at given concentration) of 104%. It also gave a viability at 317 µM [3, 4] of 98%, a viability at 1000 µM [3, 5] of 94% and a viability at 3000 µM [3, 6] of 84%. For the same compound, the viability at 10000 µM [3, 7] was 66%, the IC50 ([3]; Table 8.2) was greater than 10 mM and the viability at 1 µM (A-431 skin cancer cells; 1 μM, Table 9.2, read-out: Cell survival at given concentration) was 99%. For the same compound, the viability at 3 µM (A-431 skin cancer cells; 3 μM, Table 9.2, read-out: Cell survival at given concentration) was 101%, the viability at 10 µM (A-431 skin cancer cells; 10 μM, Table 9.2, read-out: Cell survival at given concentration) was 103% and the viability at 32 µM (A-431 skin cancer cells; 32 μM, Table 9.2, read-out: Cell survival at given concentration) was 102%. It also gave a viability at 100 µM (A-431 skin cancer cells; 100 μM, Table 9.2, read-out: Cell survival at given concentration) of 104%, a viability at 317 µM (A-431 skin cancer cells; [4]) of 99% and a viability at 1000 µM (A-431 skin cancer cells; [5]) of 98%. The viability at 3000 µM (A-431 skin cancer cells; [6]) was 89%, the viability at 10000 µM (A-431 skin cancer cells; [7]) was 70% and the IC50 (A-431 skin cancer cells; Table 9.2) was greater than 10 mM. It also gave a viability at 1 µM (AGS stomach cancer cells; 1 μM, Table 10.2, read-out: Cell survival at given concentration) of 102%, a viability at 3 µM (AGS stomach cancer cells; 3 μM, Table 10.2, read-out: Cell survival at given concentration) of 98% and a viability at 10 µM (AGS stomach cancer cells; 10 μM, Table 10.2, read-out: Cell survival at given concentration) of 103%. For the same compound, the viability at 32 µM (AGS stomach cancer cells; 32 μM, Table 10.2, read-out: Cell survival at given concentration) was 101%, the viability at 100 µM (AGS stomach cancer cells; 100 μM, Table 10.2, read-out: Cell survival at given concentration) was 104% and the viability at 317 µM (AGS stomach cancer cells; [4]) was 101%. For the same compound, the viability at 1000 µM (AGS stomach cancer cells; [5]) was 103%, the viability at 3000 µM (AGS stomach cancer cells; [6]) was 96% and the viability at 10000 µM (AGS stomach cancer cells; [7]) was 70%.
